# Test results published in US9598421B2, “Imidazopyridazine compounds” (Pfizer Inc., priority 2014, dated 2017).
# Assays:
# Format in all cases: biochemical
# [1] = target: Human PDE4A (Homo sapiens (Human), UniProt P27815); assay: PDE4A Scintillation Proximity Assay (SPA), inhibition of enzyme activity; settings: human recombinant enzyme, 1 μM cAMP substrate, 30 min at 25° C., geometric mean of 2-9 determinations unless otherwise indicated, read-out: Human PDE4A FL
# Method: (§1) The PDE4A3, PDE4B1, PDE4C1 and PDE4D3 assays use the Scintillation Proximity Assay (SPA) technology to measure the inhibition of human recombinant PDE4A1, PDE4B3, PDE4C1, and PDE4D3 enzyme activity by compounds in vitro. The PDE4A1, PDE4B3, PDE4C1, and PDE4D3 assays are run in parallel using identical parameters, except for the concentration of enzyme (80 pM PDE4A3, 40 pM PDE4B3, 40 pM PDE4C1 and 10 pM PDE4D). […] Reactions are incubated for 30 min at 25° C. The addition of 20 uL of 8 mg/ml yitrium silicate SPA beads (Perkin Elmer) stops the reaction. The plates are sealed (TopSeal, Perkin Elmer) and the beads are allowed to settle for 8 hrs, after which they are read on the Trilux Microbeta overnight.
# [2] = target: Human PDE4C (Homo sapiens (Human), UniProt Q08493); assay: PDE4C Scintillation Proximity Assay (SPA), inhibition of enzyme activity; settings: human recombinant enzyme, 1 μM cAMP substrate, 30 min at 25° C., geometric mean of 2-9 determinations unless otherwise indicated, read-out: Human PDE4C FL
# Method: as §1
# [3] = target: Human PDE4D (Homo sapiens (Human), UniProt Q08499); assay: PDE4D Scintillation Proximity Assay (SPA), inhibition of enzyme activity; settings: human recombinant enzyme, 1 μM cAMP substrate, 30 min at 25° C., geometric mean of 2-9 determinations unless otherwise indicated, read-out: Human PDE4D FL
# Sequence of Human PDE4D (Q08499 186-808): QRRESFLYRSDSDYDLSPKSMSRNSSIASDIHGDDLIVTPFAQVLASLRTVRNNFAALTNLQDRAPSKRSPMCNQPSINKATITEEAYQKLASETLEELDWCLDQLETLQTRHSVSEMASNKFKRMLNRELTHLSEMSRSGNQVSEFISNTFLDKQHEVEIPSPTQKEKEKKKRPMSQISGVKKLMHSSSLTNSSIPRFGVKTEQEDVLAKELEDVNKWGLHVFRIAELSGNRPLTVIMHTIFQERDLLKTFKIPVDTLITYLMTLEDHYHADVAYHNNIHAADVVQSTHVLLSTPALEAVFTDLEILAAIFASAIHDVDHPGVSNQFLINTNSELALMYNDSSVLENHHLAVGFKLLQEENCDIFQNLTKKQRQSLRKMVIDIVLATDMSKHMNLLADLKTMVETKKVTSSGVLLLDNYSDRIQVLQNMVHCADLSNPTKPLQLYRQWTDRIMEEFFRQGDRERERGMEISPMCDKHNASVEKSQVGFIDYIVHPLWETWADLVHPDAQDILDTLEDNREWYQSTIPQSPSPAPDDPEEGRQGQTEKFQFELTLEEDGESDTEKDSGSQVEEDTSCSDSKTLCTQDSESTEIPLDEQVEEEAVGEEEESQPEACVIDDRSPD
# Sequence of Human PDE4A (P27815 other isoform, or with tags, fused parts or gaps): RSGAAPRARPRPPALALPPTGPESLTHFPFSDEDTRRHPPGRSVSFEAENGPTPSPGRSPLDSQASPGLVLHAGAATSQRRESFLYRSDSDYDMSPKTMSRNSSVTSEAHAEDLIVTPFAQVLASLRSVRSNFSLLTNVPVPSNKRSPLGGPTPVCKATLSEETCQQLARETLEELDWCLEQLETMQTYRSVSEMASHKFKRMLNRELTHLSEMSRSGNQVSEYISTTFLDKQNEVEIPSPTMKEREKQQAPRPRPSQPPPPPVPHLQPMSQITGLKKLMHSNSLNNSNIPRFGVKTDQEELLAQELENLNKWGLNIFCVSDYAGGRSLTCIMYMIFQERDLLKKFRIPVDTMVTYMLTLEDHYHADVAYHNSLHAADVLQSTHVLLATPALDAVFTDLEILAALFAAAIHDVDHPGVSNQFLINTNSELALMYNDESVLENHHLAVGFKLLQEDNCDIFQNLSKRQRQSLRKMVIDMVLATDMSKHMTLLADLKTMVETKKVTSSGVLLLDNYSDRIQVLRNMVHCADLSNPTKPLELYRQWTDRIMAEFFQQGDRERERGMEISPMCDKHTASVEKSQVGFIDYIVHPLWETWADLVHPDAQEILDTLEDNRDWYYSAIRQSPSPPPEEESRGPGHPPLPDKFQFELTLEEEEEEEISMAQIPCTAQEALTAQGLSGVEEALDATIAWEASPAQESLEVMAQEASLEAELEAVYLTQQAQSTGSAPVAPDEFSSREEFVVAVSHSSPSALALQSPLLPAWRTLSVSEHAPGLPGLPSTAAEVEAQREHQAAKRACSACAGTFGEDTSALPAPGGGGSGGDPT
# Sequence of Human PDE4C (Q08493 2-712): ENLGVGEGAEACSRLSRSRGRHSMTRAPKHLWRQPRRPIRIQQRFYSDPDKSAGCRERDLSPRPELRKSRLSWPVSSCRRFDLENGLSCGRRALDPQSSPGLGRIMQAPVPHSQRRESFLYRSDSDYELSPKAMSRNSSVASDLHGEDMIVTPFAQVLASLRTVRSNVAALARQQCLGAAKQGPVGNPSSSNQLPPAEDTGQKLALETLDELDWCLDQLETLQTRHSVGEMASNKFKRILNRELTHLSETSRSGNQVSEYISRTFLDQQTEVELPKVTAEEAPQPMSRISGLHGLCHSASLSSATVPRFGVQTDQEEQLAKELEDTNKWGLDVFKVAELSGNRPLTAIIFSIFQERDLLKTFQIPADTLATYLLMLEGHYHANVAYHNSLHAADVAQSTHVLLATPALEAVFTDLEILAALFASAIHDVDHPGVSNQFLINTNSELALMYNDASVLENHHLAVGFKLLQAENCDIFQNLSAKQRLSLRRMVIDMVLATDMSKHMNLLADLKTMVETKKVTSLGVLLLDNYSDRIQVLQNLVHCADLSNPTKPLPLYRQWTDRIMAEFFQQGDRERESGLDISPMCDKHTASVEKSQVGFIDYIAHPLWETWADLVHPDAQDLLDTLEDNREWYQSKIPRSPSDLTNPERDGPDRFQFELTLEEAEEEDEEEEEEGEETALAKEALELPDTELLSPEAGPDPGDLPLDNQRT
Structure (SMILES),IC50 [1],IC50 [2],IC50 [3]
"O=C(NC1CC1)c1nc2cccnn2c1-c1ccnc(C(F)(F)F)c1 [Example 42, N-cyclopropyl-3-[2-(trifluoromethyl)pyridin-4-yl]imidazo[1,2-b]pyridazine-2-carboxamide]",415 nM,357 nM,< 12200 nM
"O=C(N[C@@H]1C[C@@H]1F)c1nc2cccnn2c1-c1ccc(Cl)cc1 [Example 46, 3-(4-chlorophenyl)-N-[(1R,2S)-2-fluorocyclopropyl]imidazo[1,2-b]pyridazine-2-carboxamide]",15.2 nM,39.3 nM,971 nM
"O=C(c1nc2cccnn2c1-c1cc(F)c(Cl)c(F)c1)N1CCC1 [Example 47, azetidin-1-yl[3-(4-chloro-3,5-difluorophenyl)imidazo[1,2-b]pyridazin-2-yl]methanone]",7.37 nM,23.9 nM,334 nM
"CCCNC(=O)c1nc2cccnn2c1-c1cncc(Cl)c1 [Example 48, 3-(5-chloropyridin-3-yl)-N-propylimidazo[1,2-b]pyridazine-2-carboxamide]",768 nM,212 nM,> 7670 nM
"O=C(c1nc2cccnn2c1-c1ccc2c(c1)CCO2)N1CCC1 [Example 50, azetidin-1-yl[3-(2,3-dihydro-1-benzofuran-5-yl)imidazo[1,2-b]pyridazin-2-yl]methanone]",28.1 nM,235 nM,3140 nM
"O=C(c1nc2cccnn2c1-c1ccc(Cl)cc1F)N1CCC1 [Example 52, azetidin-1-yl[3-(4-chloro-2-fluorophenyl)imidazo[1,2-b]pyridazin-2-yl]methanone]",24.3 nM,113 nM,5510 nM
"Cc1cc(-c2c(C(=O)N3CCC3)nc3cccnn23)cc(C)c1F [Example 53, azetidin-1-yl[3-(4-fluoro-3,5-dimethylphenyl)imidazo[1,2-b]pyridazin-2-yl]methanone]",17.8 nM,153 nM,3110 nM
"Cc1ccc(-c2c(C(=O)N3CCC3)nc3cccnn23)c(F)c1 [Example 54, azetidin-1-yl[3-(2-fluoro-4-methylphenyl)imidazo[1,2-b]pyridazin-2-yl]methanone]",103 nM,136 nM,> 20000 nM
"COc1ccc(-c2c(C(=O)N3CCC3)nc3cccnn23)cc1F [Example 55, azetidin-1-yl[3-(3-fluoro-4-methoxyphenyl)imidazo[1,2-b]pyridazin-2-yl]methanone]",176 nM,> 1550 nM,> 20900 nM
"O=C(c1nc2cccnn2c1-c1ccc(Cl)cc1)N1CC(F)C1 [Example 60, [3-(4-chlorophenyl)imidazo[1,2-b]pyridazin-2-yl](3-fluoroazetidin-1-yl)methanone]",269 nM,287 nM,> 4930 nM
"O=C(c1nc2cccnn2c1-c1ccc(Cl)cc1)N1CC(F)(F)C1 [Example 61, [3-(4-chlorophenyl)imidazo[1,2-b]pyridazin-2-yl](3,3-difluoroazetidin-1-yl)methanone]",144 nM,126 nM,1930 nM
"O=C(N[C@@H]1C[C@@H]1F)c1nc2cccnn2c1-c1ccc(Cl)cc1F [Example 68, 3-(4-chloro-2-fluorophenyl)-N-[(1R,2S)-2-fluorocyclopropyl]imidazo[1,2-b]pyridazine-2-carboxamide]",10.6 nM,25.1 nM,2620 nM
"Cc1cc(Cl)ccc1-c1c(C(=O)N[C@@H]2C[C@@H]2F)nc2cccnn12 [Example 70, 3-(4-chloro-2-methylphenyl)-N-[(1R,2S)-2-fluorocyclopropyl]imidazo[1,2-b]pyridazine-2-carboxamide]",36.4 nM,90 nM,5760 nM
"Cc1ccc(-c2c(C(=O)N[C@@H]3C[C@@H]3F)nc3cccnn23)cc1Cl [Example 71, 3-(3-chloro-4-methylphenyl)-N-[(1R,2S)-2-fluorocyclopropyl]imidazo[1,2-b]pyridazine-2-carboxamide]",< 0.669 nM,2 nM,113 nM
"O=C(NC1CC1)c1nc2cccnn2c1-c1ccnc(OC(F)F)c1 [Example 75, N-cyclopropyl-3-[2-(difluoromethoxy)pyridin-4-yl]imidazo[1,2-b]pyridazine-2-carboxamide]",10.5 nM,24.9 nM,104 nM
"O=C(c1nc2cccnn2c1-c1ccnc(OC(F)F)c1)N1CCC1 [Example 76, azetidin-1-yl{3-[2-(difluoromethoxy)pyridin-4-yl]imidazo[1,2-b]pyridazin-2-yl}methanone]",7.09 nM,22.2 nM,94.5 nM

Structure (SMILES),IC50 [1],IC50 [2],IC50 [3]
"O=C(c1nc2cccnn2c1-c1ccc2ncoc2c1)N1CCC1 [Example 77, azetidin-1-yl[3-(1,3-benzoxazol-6-yl)imidazo[1,2-b]pyridazin-2-yl]methanone]",46.1 nM,186 nM,> 16600 nM
"N#Cc1ccc(-c2c(C(=O)NC3CC3)nc3cccnn23)c(F)c1 [Example 79, 3-(4-cyano-2-fluorophenyl)-N-cyclopropylimidazo[1,2-b]pyridazine-2-carboxamide]",48.8 nM,297 nM,> 25400 nM
"O=C(c1nc2cccnn2c1-c1ccc(Cl)c(Cl)c1)N1CCC1 [Example 83, azetidin-1-yl[3-(3,4-dichlorophenyl)imidazo[1,2-b]pyridazin-2-yl]methanone]",6.21 nM,40 nM,495 nM
"CCNC(=O)c1nc2cccnn2c1-c1ccc(Cl)cc1 [Example 85, 3-(4-chlorophenyl)-N-ethylimidazo[1,2-b]pyridazine-2-carboxamide]",25.6 nM,47.2 nM,6700 nM
"O=C(NC1CC1)c1nc2cccnn2c1-c1ccc(OC(F)F)nc1 [Example 87, N-cyclopropyl-3-[6-(difluoromethoxy)pyridin-3-yl]imidazo[1,2-b]pyridazine-2-carboxamide]",240 nM,397 nM,6790 nM
"O=C(NC1CC1)c1nc2cccnn2c1-c1ccc2ncoc2c1 [Example 88, 3-(1,3-benzoxazol-6-yl)-N-cyclopropylimidazo[1,2-b]pyridazine-2-carboxamide]",45 nM,136 nM,10400 nM
"Cc1cc2ncnn2cc1-c1c(C(=O)NC2CC2)nc2cccnn12 [Example 89, N-cyclopropyl-3-(7-methyl[1,2,4]triazolo[1,5-a]pyridin-6-yl)imidazo[1,2-b]pyridazine-2-carboxamide]",829 nM,3760 nM,> 17200 nM
"N#Cc1ccc(-c2c(C(=O)NC3CC3)nc3cccnn23)cc1F [Example 90, 3-(4-cyano-3-fluorophenyl)-N-cyclopropylimidazo[1,2-b]pyridazine-2-carboxamide]",21.4 nM,25.5 nM,2620 nM
"N#Cc1cc(F)c(-c2c(C(=O)NC3CC3)nc3cccnn23)cc1F [Example 92, 3-(4-cyano-2,5-difluorophenyl)-N-cyclopropylimidazo[1,2-b]pyridazine-2-carboxamide]",5.52 nM,42.5 nM,> 1440 nM
"CNC(=O)c1nc2cccnn2c1-c1cc(F)c(Cl)cc1F [Example 93, 3-(4-chloro-2,5-difluorophenyl)-N-methylimidazo[1,2-b]pyridazine-2-carboxamide]",62.9 nM,134 nM,4110 nM
"CNC(=O)c1nc2cccnn2c1-c1ccc(Cl)c(F)c1 [Example 94, 3-(4-chloro-3-fluorophenyl)-N-methylimidazo[1,2-b]pyridazine-2-carboxamide]",24.9 nM,65 nM,5380 nM
"CCNC(=O)c1nc2cccnn2c1-c1cc(F)c(Cl)cc1F [Example 96, 3-(4-chloro-2,5-difluorophenyl)-N-ethylimidazo[1,2-b]pyridazine-2-carboxamide]",4.58 nM,29.2 nM,908 nM
"CCNC(=O)c1nc2cccnn2c1-c1cc(F)c(C#N)cc1C [Example 98, 3-(4-cyano-5-fluoro-2-methylphenyl)-N-ethylimidazo[1,2-b]pyridazine-2-carboxamide]",26.6 nM,107 nM,3320 nM
"O=C(Nc1ncccn1)c1nc2cccnn2c1-c1ccc(Cl)cc1 [Example 101, 3-(4-chlorophenyl)-N-(pyrimidin-2-yl)imidazo[1,2-b]pyridazine-2-carboxamide]",268 nM,1180 nM,> 25900 nM
"O=C(NCC1CC1)c1nc2cccnn2c1-c1ccc(Cl)cc1 [Example 102, 3-(4-chlorophenyl)-N-(cyclopropylmethyl)imidazo[1,2-b]pyridazine-2-carboxamide]",59.9 nM,76 nM,5010 nM
"O=C(NC1CC1)c1nc2cccnn2c1-c1cc(F)c(Cl)c(F)c1 [Example 104, 3-(4-chloro-3,5-difluorophenyl)-N-cyclopropylimidazo[1,2-b]pyridazine-2-carboxamide]",< 0.488 nM,4.69 nM,145 nM
